Read-outs that look alike come from different tables or passages of the source.
Tests used:
Test in all cases: Sensitivity test (agar dilution), clinical isolate
[1] = system: Acinetobacter spp. Jan-99; type: cell-based, Acinetobacter calcoaceticus and Acinetobacter lwoffi; conditions: Acinetobacter, read-out: MIC
Experimental: (§1) In addition, the antibacterial activities were tested against strains which are comparatively less sensitive to β-lactam compounds, namely clinically isolated 13 strains of Acinetobacter calcoaceticus and Acinetobacter lwoffi, clinically isolated 11 strains of Serratia marcescens, clinically isolated 12 strains of Burkholderia cepacia, and clinically isolated 15 strains of Pseudomonas aeruginosa.
(§2) According to the standard method of Japan Chemotherapeutic Society (Chemotherapy, vol. […], p 76-79 (1981)) the test was carried out using the agar dilution method. After dissolving test samples in distilled water, agar medium containing the test samples was prepared in such a manner that the final concentration became twice serial dilution by pouring serially diluted combination drug solution or a single drug solution into agar medium. As agar medium was used Mueller Hinton Agar medium (MHA). Then, each strain was cultivated over night at 37° C. in an incubator and suspended in buffered saline solution with gelatin (BSG) in the concentration of about 10^6 CFU/ml. The suspension (about 5 μl) containing test strains was inoculated to the medium containing the test samples by Micro Planter.
(§3) Each drug was weighed, and dissolved in distilled water to give a test sample. When the drugs are used in combination, two kinds of solution containing each drug were mixed so as to be various ratio of concentration to give a mixed solution. When the sample is subjected to sensitivity test, this mixed solution was diluted by twice serial dilution method.
(§4) Furthermore, when the drug is solely used, each test sample was used as it is, and diluted by twice serial dilution method from the maximum concentration to the minimum concentration.

[2] = system: Acinetobacter spp. Jan-99 (second line, r15); type: cell-based, Acinetobacter calcoaceticus and Acinetobacter lwoffi; conditions: read-out: MIC
Experimental: as §1, §2, §3, §4

Acinetobacter spp. 256 = type: cell-based, Acinetobacter calcoaceticus and Acinetobacter lwoffi
Experimental: as §1, §2, §3, §4

Acinetobacter spp. 227-1 = type: cell-based, Acinetobacter calcoaceticus and Acinetobacter lwoffi
Experimental: as §1, §2, §3, §4

[3] = system: Acinetobacter spp. Jan-54; type: cell-based, Acinetobacter calcoaceticus and Acinetobacter lwoffi
Experimental: as §1, §2, §3, §4

[4] = system: Acinetobacter spp. Jan-81; type: cell-based, Acinetobacter calcoaceticus and Acinetobacter lwoffi
Experimental: as §1, §2, §3, §4

Acinetobacter spp. 14712 = type: cell-based, Acinetobacter calcoaceticus and Acinetobacter lwoffi
Experimental: as §1, §2, §3, §4

[5] = system: Acinetobacter spp. 1398-2; type: cell-based, Acinetobacter calcoaceticus and Acinetobacter lwoffi
Experimental: as §1, §2, §3, §4

Acinetobacter spp. 175 = type: cell-based, Acinetobacter calcoaceticus and Acinetobacter lwoffi; conditions: Acinetobacter, read-out: MIC
Experimental: as §1, §2, §3, §4

Acinetobacter spp. 1195 = type: cell-based, Acinetobacter calcoaceticus and Acinetobacter lwoffi; conditions: read-out: MIC
Experimental: as §1, §2, §3, §4

Acinetobacter spp. 1198 = type: cell-based, Acinetobacter calcoaceticus and Acinetobacter lwoffi; conditions: read-out: MIC
Experimental: as §1, §2, §3, §4

[6] = system: Acinetobacter spp. 1399-2; type: cell-based, Acinetobacter calcoaceticus and Acinetobacter lwoffi
Experimental: as §1, §2, §3, §4

[7] = system: Acinetobacter spp. 1338-2; type: cell-based, Acinetobacter calcoaceticus and Acinetobacter lwoffi; conditions: read-out: MIC
Experimental: as §1, §2, §3, §4

S. marcescens 2012884 = type: cell-based, Serratia marcescens
Experimental: as §1, §2, §3, §4

P. aeruginosa 13221 = type: cell-based, Pseudomonas aeruginosa; conditions: read-out: MIC
In short: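 Inhibition is read on Mueller Hinton agar plates carrying twofold serially diluted test drug, alone or as combinations at varied ratios, following the Japan Chemotherapeutic Society agar dilution method. Inocula of about 10^6 CFU/ml were applied as ~5 μl spots.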

Q: For `C[C@H]1C=C(c2csc(SC3=C(C(=O)O)N4C(=O)[C@H]([C@@H](C)O)[C@H]4[C@H]3C)n2)CN1` [SM, (4R,5S,6S)-6-[(1R)-1-Hydroxyethyl]-4-methyl-3-({4-[(5S)-5-methyl-2,5-dihydro-1H-pyrrol-3-yl]-1,3-thiazol-2-yl}sulfanyl)-7-oxo-1-azabicyclo[3.2.0]hept-2-ene-2-carboxylic acid], which MIC ([1]; Concomitant (ME:SM = 1:1)) is on record?
A: 0.25 µg/mL

Q: And the MIC ([1]; Concomitant (ME:SM = 1:2))?
A: 0.25 µg/mL

Q: And the MIC ([1]; Concomitant (ME:SM = 1:4))?
A: 0.5 µg/mL

Q: What about the MIC ([1]; Concomitant (ME:SM = 2:1)) of the same compound?
A: 0.125 µg/mL

Q: And the MIC ([1]; alone)?
A: 0.5 µg/mL

Q: And the MIC ([2]; Concomitant (ME:SM = 1:1))?
A: 0.5 µg/mL

Q: And the MIC ([2]; Concomitant (ME:SM = 1:2))?
A: 0.5 µg/mL

Q: What about the MIC ([2]; Concomitant (ME:SM = 1:4)) of the same compound?
A: 0.5 µg/mL

Q: What about the MIC ([2]; Concomitant (ME:SM = 2:1)) of the same compound?
A: 0.25 µg/mL

Q: What about the MIC ([2]; alone) of the same compound?
A: 2 µg/mL

Q: What about the MIC (Acinetobacter spp. 256; SPP.256, Concomitant (ME:SM = 1:1)) of the same compound?
A: 0.5 µg/mL

Q: And the MIC (Acinetobacter spp. 256; SPP.256, Concomitant (ME:SM = 1:2))?
A: 1 µg/mL

Q: And the MIC (Acinetobacter spp. 256; SPP.256, Concomitant (ME:SM = 1:4))?
A: 1 µg/mL

Q: What about the MIC (Acinetobacter spp. 256; SPP.256, Concomitant (ME:SM = 2:1)) of the same compound?
A: 0.25 µg/mL

Q: And the MIC (Acinetobacter spp. 256; SPP.256, alone)?
A: 1 µg/mL

Q: And the MIC (Acinetobacter spp. 227-1; SPP.2271, Concomitant (ME:SM = 1:1))?
A: 0.5 µg/mL

Q: What about the MIC (Acinetobacter spp. 227-1; SPP.2271, Concomitant (ME:SM = 1:2)) of the same compound?
A: 1 µg/mL

Q: And the MIC (Acinetobacter spp. 227-1; SPP.2271, Concomitant (ME:SM = 1:4))?
A: 1 µg/mL

Q: And the MIC (Acinetobacter spp. 227-1; SPP.2271, Concomitant (ME:SM = 2:1))?
A: 0.25 µg/mL

Q: And the MIC (Acinetobacter spp. 227-1; SPP.2271, alone)?
A: 2 µg/mL

Q: What about the MIC ([3]; Concomitant (ME:SM = 1:1)) of the same compound?
A: 0.5 µg/mL

Q: And the MIC ([3]; Concomitant (ME:SM = 1:2))?
A: 1 µg/mL

Q: What about the MIC ([3]; Concomitant (ME:SM = 1:4)) of the same compound?
A: 1 µg/mL

Q: What about the MIC ([3]; Concomitant (ME:SM = 2:1)) of the same compound?
A: 0.25 µg/mL

Q: What about the MIC ([3]; alone) of the same compound?
A: 2 µg/mL

Q: What about the MIC ([4]; Concomitant (ME:SM = 1:1)) of the same compound?
A: 8 µg/mL

Q: What about the MIC ([4]; Concomitant (ME:SM = 1:2)) of the same compound?
A: 4 µg/mL

Q: What about the MIC ([4]; Concomitant (ME:SM = 1:4)) of the same compound?
A: 8 µg/mL

Q: And the MIC ([4]; Concomitant (ME:SM = 2:1))?
A: 2 µg/mL

Q: And the MIC ([4]; alone)?
A: 32 µg/mL

Q: And the MIC (Acinetobacter spp. 14712; SPP.14712, Concomitant (ME:SM = 1:1))?
A: 0.5 µg/mL

Q: What about the MIC (Acinetobacter spp. 14712; SPP.14712, Concomitant (ME:SM = 1:2)) of the same compound?
A: 1 µg/mL

Q: And the MIC (Acinetobacter spp. 14712; SPP.14712, Concomitant (ME:SM = 1:4))?
A: 1 µg/mL

Q: What about the MIC (Acinetobacter spp. 14712; SPP.14712, Concomitant (ME:SM = 2:1)) of the same compound?
A: 0.25 µg/mL

Q: What about the MIC (Acinetobacter spp. 14712; SPP.14712, alone) of the same compound?
A: 2 µg/mL

Q: What about the MIC ([5]; SPP.13982, Concomitant (ME:SM = 1:1)) of the same compound?
A: 2 µg/mL

Q: What about the MIC ([5]; SPP.13982, Concomitant (ME:SM = 1:2)) of the same compound?
A: 4 µg/mL

Q: And the MIC ([5]; SPP.13982, Concomitant (ME:SM = 1:4))?
A: 4 µg/mL

Q: And the MIC ([5]; SPP.13982, Concomitant (ME:SM = 2:1))?
A: 2 µg/mL

Q: What about the MIC ([5]; SPP.13982, alone) of the same compound?
A: 8 µg/mL

Q: And the MIC (Acinetobacter spp. 175; SPP.175, Concomitant (ME:SM = 1:1))?
A: 0.125 µg/mL

Q: And the MIC (Acinetobacter spp. 175; SPP.175, Concomitant (ME:SM = 1:2))?
A: 0.125 µg/mL

Q: And the MIC (Acinetobacter spp. 175; SPP.175, Concomitant (ME:SM = 1:4))?
A: 0.25 µg/mL

Q: And the MIC (Acinetobacter spp. 175; SPP.175, Concomitant (ME:SM = 2:1))?
A: 0.063 µg/mL

Q: And the MIC (Acinetobacter spp. 175; SPP.175, alone)?
A: 0.5 µg/mL

Q: And the MIC (Acinetobacter spp. 1195; SPP.1195, Concomitant (ME:SM = 1:1))?
A: 0.25 µg/mL

Q: And the MIC (Acinetobacter spp. 1195; SPP.1195, Concomitant (ME:SM = 1:2))?
A: 0.25 µg/mL

Q: What about the MIC (Acinetobacter spp. 1195; SPP.1195, Concomitant (ME:SM = 1:4)) of the same compound?
A: 0.25 µg/mL

Q: And the MIC (Acinetobacter spp. 1195; SPP.1195, Concomitant (ME:SM = 2:1))?
A: 0.125 µg/mL

Q: What about the MIC (Acinetobacter spp. 1195; SPP.1195, alone) of the same compound?
A: 0.5 µg/mL

Q: And the MIC (Acinetobacter spp. 1198; SPP.1198, Concomitant (ME:SM = 1:1))?
A: 0.25 µg/mL

Q: And the MIC (Acinetobacter spp. 1198; SPP.1198, Concomitant (ME:SM = 1:2))?
A: 0.25 µg/mL

Q: And the MIC (Acinetobacter spp. 1198; SPP.1198, Concomitant (ME:SM = 1:4))?
A: 0.25 µg/mL

Q: What about the MIC (Acinetobacter spp. 1198; SPP.1198, Concomitant (ME:SM = 2:1)) of the same compound?
A: 0.125 µg/mL

Q: What about the MIC (Acinetobacter spp. 1198; SPP.1198, alone) of the same compound?
A: 0.5 µg/mL

Q: What about the MIC ([6]; SPP.13992, Concomitant (ME:SM = 1:1)) of the same compound?
A: 0.5 µg/mL

Q: What about the MIC ([6]; SPP.13992, Concomitant (ME:SM = 1:2)) of the same compound?
A: 1 µg/mL

Q: What about the MIC ([6]; SPP.13992, Concomitant (ME:SM = 1:4)) of the same compound?
A: 1 µg/mL

Q: And the MIC ([6]; SPP.13992, Concomitant (ME:SM = 2:1))?
A: 0.25 µg/mL

Q: And the MIC ([6]; SPP.13992, alone)?
A: 2 µg/mL

Q: And the MIC ([7]; SPP.13382, Concomitant (ME:SM = 1:1))?
A: 0.5 µg/mL

Q: What about the MIC ([7]; SPP.13382, Concomitant (ME:SM = 1:2)) of the same compound?
A: 1 µg/mL

Q: What about the MIC ([7]; SPP.13382, Concomitant (ME:SM = 1:4)) of the same compound?
A: 0.5 µg/mL

Q: What about the MIC ([7]; SPP.13382, Concomitant (ME:SM = 2:1)) of the same compound?
A: 0.25 µg/mL

Q: And the MIC ([7]; SPP.13382, alone)?
A: 0.5 µg/mL

Q: And the MIC (S. marcescens 2012884; Serratia marcescens, 2012884, Concomitant (ME:SM = 1:1))?
A: 2 µg/mL

Q: And the MIC (S. marcescens 2012884; Serratia marcescens, 2012884, Concomitant (ME:SM = 1:2))?
A: 4 µg/mL

Q: What about the MIC (S. marcescens 2012884; Serratia marcescens, 2012884, Concomitant (ME:SM = 1:4)) of the same compound?
A: 4 µg/mL

Q: And the MIC (S. marcescens 2012884; Serratia marcescens, 2012884, Concomitant (ME:SM = 2:1))?
A: 2 µg/mL

Q: What about the MIC (S. marcescens 2012884; Serratia marcescens, 2012884, alone) of the same compound?
A: 8 µg/mL

Q: What about the MIC (P. aeruginosa 13221; Pseudomonas aeruginosa, 13221, Concomitant (ME:SM = 1:1)) of the same compound?
A: 0.125 µg/mL

Q: And the MIC (P. aeruginosa 13221; Pseudomonas aeruginosa, 13221, Concomitant (ME:SM = 1:2))?
A: 0.25 µg/mL

Q: And the MIC (P. aeruginosa 13221; Pseudomonas aeruginosa, 13221, Concomitant (ME:SM = 1:4))?
A: 0.25 µg/mL

Q: And the MIC (P. aeruginosa 13221; Pseudomonas aeruginosa, 13221, Concomitant (ME:SM = 2:1))?
A: 0.031 µg/mL

Q: And the MIC (P. aeruginosa 13221; Pseudomonas aeruginosa, 13221, alone)?
A: 16 µg/mL
